Reference: US6448201B1, “Benzoylcyclohexanediones and benzoylpyrazoles, their preparation, and their use as herbicides and plant growth regulators” (Aventis CropScience GmbH, priority 1999, dated 2002)

## CS(=O)(=O)c1ccc(C(=O)C2C(=O)CCCC2=O)c(Cl)c1OCc1cc(-c2ccccc2)no1 [1.70, 2-(2-Chloro-3-(3-phenylisoxazol-5-yl)methoxy-4-methylsulfonylbenzoyl)cyclohexane-1,3-dione]
  melting point: 72 to 78 °C
